Legend:
[1] = Intrinsic clearance by mouse liver microsomes; format: in vitro ADME; settings: for CLHEP (predicted hepatic clearance): estimated from Clint, mouse hepatic blood flow QH 90 mL/min/kg
[2] = target: T1, mouse TP receptor (Mus musculus, UniProt P30987); assay: Suppression of signaling through mouse TP receptor; format: cell-based
T1 sequence (P30987 1-341): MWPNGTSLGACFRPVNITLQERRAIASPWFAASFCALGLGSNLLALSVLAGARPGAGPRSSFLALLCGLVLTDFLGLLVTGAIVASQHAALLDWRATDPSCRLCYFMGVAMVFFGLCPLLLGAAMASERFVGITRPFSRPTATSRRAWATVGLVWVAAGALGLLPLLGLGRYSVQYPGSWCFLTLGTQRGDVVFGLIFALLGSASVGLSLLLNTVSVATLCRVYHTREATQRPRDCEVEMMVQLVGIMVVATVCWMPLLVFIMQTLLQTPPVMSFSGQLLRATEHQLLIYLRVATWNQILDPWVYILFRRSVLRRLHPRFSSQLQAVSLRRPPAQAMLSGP

[3] = target: T2, mouse EP1 receptor (Mus musculus, UniProt P35375); settings: for Schild regression slope m: representative experiment, six antagonist concentrations, agonist 17PTPGE2
T2 sequence (P35375 1-405): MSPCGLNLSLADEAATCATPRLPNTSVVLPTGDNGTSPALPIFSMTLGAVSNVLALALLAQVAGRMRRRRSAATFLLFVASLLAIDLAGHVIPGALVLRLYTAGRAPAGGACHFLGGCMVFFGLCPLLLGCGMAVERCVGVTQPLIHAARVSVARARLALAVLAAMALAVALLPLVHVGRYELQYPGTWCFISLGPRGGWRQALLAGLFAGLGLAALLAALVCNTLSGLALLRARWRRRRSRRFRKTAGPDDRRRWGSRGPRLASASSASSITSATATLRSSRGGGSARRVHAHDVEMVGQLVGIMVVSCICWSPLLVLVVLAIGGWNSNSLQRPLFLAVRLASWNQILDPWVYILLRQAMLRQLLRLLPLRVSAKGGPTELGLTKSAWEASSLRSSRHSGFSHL

[4] = test system: phenylephrine vasoconstriction; assay: Phenylephrine pressor response control in anesthetized mice; format: in vivo, mouse; settings: phenylephrine 10 μg/kg; data not shown
[5] = Metabolite identification in hepatic subcellular fractions; format: in vitro ADME; settings: NADPH-independent hydrolysis and NADPH-dependent oxidation
[6] = test system: human EP1 receptor; settings: cited from earlier work
[7] = In vivo pharmacokinetics of 7 in mice; settings: mouse, plasma, iv, 1 mg/kg
[8] = several species; cited from earlier work
[9] = test system: human thromboxane (TP) receptor; settings: cited from earlier work

| SMILES | CLHEP (predicted hepatic clearance) [1] [mL/min/kg] | CLint scaled ([1]; mouse, liver microsomes) [mL/min/kg] | IC50 [2] [µM] | further results |
| --- | --- | --- | --- | --- |
| CC(C)(C)NC(=O)c1cccc(Cc2cc(Cl)ccc2OCc2ccc(Cl)cc2F)n1 [Compound 13] |  |  | > 1 |  |
| CC(C)CNC(=O)c1cccc(Cc2cc(Cl)ccc2OCc2ccc(Cl)cc2F)n1 [Compound 11] | 89.2 | 9810 | > 1 | Biotransformation in metabolite identification studies [5]: extensive biotransformation |
| CCCS(=O)(=O)NC(=O)c1cccc(Cc2cc(Cl)ccc2OCc2ccc(Cl)cc2F)n1 [Compound 20] |  |  | > 1 |  |
| CCC(C)NC(=O)c1cccc(Cc2cc(Cl)ccc2OCc2ccc(Cl)cc2F)n1 (centres unmarked) [Compound 12] |  |  | > 1 |  |
| Cc1ccc(S(=O)(=O)NC(=O)c2cccc(Cc3cc(Cl)ccc3OCc3ccc(Cl)cc3F)n2)cc1 [Compound 19] | 88.4 | 5040 | > 1 |  |
| O=C(NC1CC2CCC1C2)c1cccc(Cc2cc(Cl)ccc2OCc2ccc(Cl)cc2F)n1 (centres unmarked) [Compound 15] |  |  | > 1 |  |
| O=C(NS(=O)(=O)c1ccc(Cl)c(Cl)c1)c1cccc(Cc2cc(Cl)ccc2OCc2ccc(Cl)cc2F)n1 [Compound 21] | 87.4 | 2990 | > 1 |  |

Continued, in another order:

| CLHEP (predicted hepatic clearance) [1] [mL/min/kg] | CLint scaled ([1]; mouse, liver microsomes) [mL/min/kg] | IC50 [2] [µM] | SMILES | further results |
| --- | --- | --- | --- | --- |
| 89.3 | 11400 | > 1 | O=C(NCC1CC1)c1cccc(Cc2cc(Cl)ccc2OCc2ccc(Cl)cc2F)n1 [Compound 8] |  |
|  |  | > 1 | O=C(c1cccc(Cc2cc(Cl)ccc2OCc2ccc(Cl)cc2F)n1)N1CCCC1 [Compound 9] | mEP1 pKD ([3]; Schild analysis, mean ± SEM of at least two independent experiments in duplicate): 4.80 ± 0.05 |
|  |  | > 1 | O=C(NS(=O)(=O)c1cc(Cl)ccc1Cl)c1cccc(Cc2cc(Cl)ccc2OCc2ccc(Cl)cc2F)n1 [Compound 18] |  |
| 86.6 | 2260 | > 1 | O=C(NS(=O)(=O)c1ccc(Cl)cc1)c1cccc(Cc2cc(Cl)ccc2OCc2ccc(Cl)cc2F)n1 [Compound 17] | Clint (intrinsic clearance) ([1]; mouse, liver microsomes): less stable in mouse hepatic microsomes than 7; Kd [3]: 0.0865 µM; Schild regression slope m [3]: 1.20 ± 0.12; Effect of pretreatment on phenylephrine pressor activity [4]: unaffected; Biotransformation in metabolite identification studies [5]: extensive biotransformation |
|  |  | > 1 | NC(=O)c1cccc(Cc2cc(Cl)ccc2OCc2ccc(Cl)cc2F)n1 [Compound 16] |  |
|  |  | > 1 | O=C(NC1CCC1)c1cccc(Cc2cc(Cl)ccc2OCc2ccc(Cl)cc2F)n1 [Compound 10] |  |
| 88.9 | 7160 | > 1 | CCN(CC)C(=O)c1cccc(Cc2cc(Cl)ccc2OCc2ccc(Cl)cc2F)n1 [Compound 14] |  |
| 43.6 | 84.7 | 0.912 | O=C(O)c1cccc(Cc2cc(Cl)ccc2OCc2ccc(Cl)cc2F)n1 [Compound 7, reference compound] | Affinity for the human EP1 receptor [6]: good affinity; half-life [7]: > 1 h; Kd [3]: 0.0521 µM; Functional antagonism of mEP1 in vitro ([3]; Schild analysis): functional antagonist of mEP1; Schild regression slope m [3]: 0.953 ± 0.085; Concentration suppressing mouse TP signaling relative to human receptor ([2]; mouse TP vs human TP): 100 fold; Stability in microsomes and S9 fractions [8]: stable; Interaction with the human thromboxane (TP) receptor [9]: high-affinity interaction |

Source: PMC3534858 (Bioorganic & medicinal chemistry letters, 2012)
